The values below come from patent US20260125374A1, “PI3K-ALPHA INHIBITORS AND METHODS OF MAKING AND USING THE SAME” (Relay Therapeutics, Inc., priority 2021, published 2026).

Series [1] can be described thus: Solution stability at 25° C. The series is classed as physicochemical. To be noted: for Chemical purity / Chiral purity / racemization in solution / chemical stability in solution: 25° C.; for Initial chiral purity: before dissolution; for racemization in solution / chemical stability in solution: methanol and THF/ACN (2:1, v/v), 4 mg/mL; for chemical stability in solution: at least 24 h. The protocol: Solution stability of I-1 Form A and I-3 Form A was investigated in methanol and THF/ACN (2:1, v/v) at 25° C. Target concentration is 4 mg/mL.
Accurate 4 mg of I-1 Form A, 5.13 mg of I-3 Form A was weighed into a 8 mL glass vial, respectively. The salt amount used is equivalent to 4 mg anhydrous free form.

Series [2] in a line: Granulation simulation experiments. The format is physicochemical. The protocol: Ethanol (without pretreatment by molecular sieve) and pure water were added drop wise to about 20 mg of I-1 Form A separately until solid is wetted sufficiently. Manually grind the samples with a mortar and pestle for about 5 min. Samples were dried under ambient condition for 10 min. Form transformation and degree of crystallinity were evaluated by XRPD.
Ethanol (without pretreatment by molecular sieve) and pure water were added drop wise to about 20 mg of Form A separately until solid is wetted sufficiently. Manually grind the samples with a mortar and pestle for about 5 min. Samples were dried under ambient condition for 10 min. Form transformation and degree of crystallinity were evaluated by XRPD.

[3] abbreviates: MeOH, 0 h, listed as I-1 Form A.
[4] abbreviates: MeOH, 6 h, listed as I-1 Form A.
[5] abbreviates: MeOH, 24 h, listed as I-1 Form A.
The mark [6] stands for this setting: THF/ACN(2:1, v/v), 0 h, listed as I-1 Form A.
Where [7] appears, read: THF/ACN(2:1, v/v), 6 h, listed as I-1 Form A.
[8] abbreviates: THF/ACN(2:1, v/v), 24 h, listed as I-1 Form A.
Setting [9] is: MeOH, 0 h, listed as I-3 Form A.
Where [10] appears, read: MeOH, 6 h, listed as I-3 Form A.
The mark [11] stands for this setting: MeOH, 24 h, listed as I-3 Form A.
The mark [12] stands for this setting: THF/ACN(2:1, v/v), 0 h, listed as I-3 Form A.
Setting [13] is: THF/ACN(2:1, v/v), 6 h, listed as I-3 Form A.
Where [14] appears, read: THF/ACN(2:1, v/v), 24 h, listed as I-3 Form A.

“Also recorded” adds a separate entry of the source.

Turning to `N#Cc1c(-c2cc(NC(=O)c3cc(F)cc(C(F)(F)F)c3)c3c(c2)C(=O)N[C@H]3c2cc(F)ccc2Cl)ccc2ncnn12` [Compound I-1, (R)-N-(3-(2-chloro-5-fluorophenyl)-6-(5-cyano-[1,2,4]triazolo[1,5-a]pyridin-6-yl)-1-oxoisoindolin-4-yl)-3-fluoro-5-(trifluoromethyl)benzamide], the Chemical purity is on record as 98.9% in series [1] (setting [3]); 99.0% in series [1] (setting [4]); 99.1% in series [1] (setting [5]); 98.6% in series [1] (setting [6]); 98.7% in series [1] (setting [7]); 99.0% in series [1] (setting [8]). Besides, the Chiral purity in series [1] (setting [3]), in series [1] (setting [4]), in series [1] (setting [5]), in series [1] (setting [6]), in series [1] (setting [7]) and in series [1] (setting [8]) was 98.9% in each case. The Initial chiral purity entry in series [1] (listed as I-1 Form A) is given as “Initial chiral purity: 99.0%”. In addition, the racemization in solution result in series [1] is on record as “no racemization”. In addition, in series [1] (listed as I-1 Form A), the “chemical stability in solution” value was “chemically stable”. In addition, the “form change on granulation simulation (XRPD)” value in series [2] (ethanol and water) is listed as “no form change”. Besides, the XRPD result in series [2] (granulation simulation with Ethanol) is “No form and crystallinity change”; in series [2] (granulation simulation with water), “No form and crystallinity change”.
Regarding `N#Cc1c(-c2cc(NC(=O)c3cc(F)cc(C(F)(F)F)c3)c3c(c2)C(=O)N[C@H]3c2cc(F)ccc2Cl)ccc2ncnn12` [Compound I-3], the Chemical purity in series [1] (setting [9]) is on record as 99.3%; in series [1] (setting [10]), 99.3%; in series [1] (setting [11]) it was 99.4%; in series [1] (setting [12]) it was 99.2%; in series [1] (setting [13]) it was 99.3%; in series [1] (setting [14]) it was 99.4%. Moreover, the Chiral purity in series [1] (setting [9]), in series [1] (setting [10]), in series [1] (setting [11]), in series [1] (setting [12]), in series [1] (setting [13]) and in series [1] (setting [14]) was 98.3% each time. Also, the Initial chiral purity result in series [1] (listed as I-3 Form A) is “Initial chiral purity: 98.6%”. For the same compound, the racemization in solution entry in series [1] is “no racemization”. The “chemical stability in solution” value in series [1] (listed as I-3 Form A) is given as “chemically stable; also recorded: good solution stability”.
